From patent publication US20050261342A1, “Metabolites of (+)-(2S,3S)-3(2-methoxy-5- trifluoromethoxybenzylamino)-2-phenyl-piperidine” (Pfizer Inc., priority 2004, published 2005)

Assay: Profiling and quantitative assessment of radiolabelled metabolites in human subjects after a single oral dose of [14C]-(+)-(2S, 3S)-3-(2-methoxy-5-trifluoromethoxybenzylamino)-2-phenyl-piperidine
Type: in vivo
Conditions: single 30 mg (free base) oral dose of [14C] parent compound, HPLC radioprofiling of pooled serum (1-24 h)
Method: Six healthy male human subjects (4 extensive metabolizers (EM) of CYP2D6 and 2 poor metabolizers (PM) of CYP2D6) were administered in a single 30 mg (free base) oral dose of (+)-(2S, 3S)-3-(2-methoxy-5-trifluoromethoxybenzylamino)-2-phenyl-piperidine containing 100 *Ci of [14C]-(+)-(2S, 3S)-3-(2-methoxy-5-trifluoromethoxybenzylamino)-2-phenyl-piperidine (Lot # 49800-59-3, specific activity 1.22 mCi/mmol, radio purity of >99%). Blood samples were collected into red-top tubes (no preservatives or anticoagulant or serum separator) at the following time points: 1, 4, 8, 12, and 24 hours post dose. The blood samples were centrifuged at 4° C. and serum was transferred to clean tubes.
a) Serum samples were pooled by human subject separately (3 ml from each sampling time, total of 15 ml) and aliquots of 1.5 mL from each pool were extracted with 5 mL of acetonitrile. The mixtures were vortex mixed for 5 minutes and centrifuged at 3500 rpm for 5 minutes to remove the precipitated proteins. Supernatants were combined and a small aliquot of supernatant was counted. Approximately 96% (average of all subjects) of the radioactivity was recovered in the supernatant. The supernatants were evaporated under N^2 in a turbovap at room temperature. […]
Measuring the radioactivity in the individual peaks separated on the HPLC column using a -RAM detector allowed the quantification of each metabolite. […]

SMILES: O=C(O)c1cc(OC(F)(F)F)ccc1O [5-trifluoromethoxy salicylic acid, 2-Hydroxy-5-trifluoromethoxy-benzoic acid]
- accounted for % of the total radioactivity (EM subjects (extensive metabolizers of CYP2D6)): approximately 56%
- accounted for % of the total radioactivity (PM subjects (poor metabolizers of CYP2D6)): ~29%
